How the values were obtained:
Assay in all cases: Test A pre/postemergence
Assay type in all cases: in vivo
[1] = test system: morningglory (Ipomoea spp.)
Procedure: (§1) Seeds of barnyardgrass (Echinochloa crus-galli), crabgrass (Digitaria sanguinalis), giant foxtail (Setaria faberi), morningglory (Ipomoea spp.), redroot pigweed (Amaranthus retroflexus) and velvetleaf (Abutilon theophrasti) were planted into a blend of loam soil and sand and treated preemergence with a directed soil spray using test chemicals formulated in a non-phytotoxic solvent mixture which included a surfactant. At the same time these species were also treated with postemergence applications of test chemicals formulated in the same manner.
(§2) Plants ranged in height from 2 to 10 cm and were in the 1- to 2-leaf stage for the postemergence treatment. Treated plants and untreated controls were maintained in a greenhouse for approximately ten days, after which time all treated plants were compared to untreated controls and visually evaluated for injury. Plant response ratings, summarized in Table A, are based on a 0 to 100 scale where 0 is no effect and 100 is complete control. A dash (-) response means no test results.

[2] = test system: giant foxtail (Setaria faberi)
Procedure: as §1, §2

[3] = test system: crabgrass (Digitaria sanguinalis)
Procedure: as §1, §2

[4] = test system: barnyardgrass (Echinochloa crus-galli)
Procedure: as §1, §2

[5] = test system: velvetleaf (Abutilon theophrasti)
Procedure: as §1, §2

[6] = test system: redroot pigweed (Amaranthus retroflexus)
Procedure: as §1, §2

[7] = Postemergence, 125 g ai/ha, 0 to 100 scale (0 no effect, 100 complete control)
[8] = Postemergence, 500 g ai/ha, 0 to 100 scale (0 no effect, 100 complete control)
[9] = Preemergence, 125 g ai/ha, 0 to 100 scale where 0 is no effect and 100 is complete control, approximately ten days
[10] = Preemergence, 500 g ai/ha, 0 to 100 scale where 0 is no effect and 100 is complete control, approximately ten days

SMILES	Plant response rating, Morningglory [1, 7]	Plant response rating, Morningglory [1, 8]	Plant response rating, Morningglory [1, 9]	Plant response rating, Morningglory [1, 10]	Plant response rating, Foxtail, Giant [2, 7]	Plant response rating, Foxtail, Giant [2, 8]	Plant response rating, Foxtail, Giant [2, 9]	Plant response rating, Foxtail, Giant [2, 10]	Plant response rating, Crabgrass [3, 7]	Plant response rating, Crabgrass [3, 8]	Plant response rating, Crabgrass [3, 9]	Plant response rating, Crabgrass [3, 10]	Plant response rating, Barnyardgrass [4, 7]	Plant response rating, Barnyardgrass [4, 8]	Plant response rating, Barnyardgrass [4, 9]	Plant response rating, Barnyardgrass [4, 10]	Plant response rating, Velvetleaf [5, 7]	Plant response rating, Velvetleaf [5, 8]	Plant response rating, Velvetleaf [5, 9]	Plant response rating, Velvetleaf [5, 10]	also measured
COC(=O)COc1nc(C2CC2)nc(N)c1Cl [Compound 112]	55	50	0	10	0	0	0	0	0	0	0	10	0	0	0	10	20	35	0	10	Plant response rating, Pigweed [6, 7]: 20; Plant response rating, Pigweed [6, 8]: 40; Plant response rating, Pigweed [6, 9]: 10; Plant response rating, Pigweed [6, 10]: 30
Cc1ccc(-c2nc(N)c(Cl)c(C(=O)O)n2)cc1F [Compound 87]	0	15	0	20	0	30	0	0	0	10	10	75	50	90	0	20	90	95	25	95	Plant response rating, Pigweed [6, 7]: 55; Plant response rating, Pigweed [6, 8]: 90; Plant response rating, Pigweed [6, 9]: 85; Plant response rating, Pigweed [6, 10]: 100
Nc1nc(-c2ccc(F)cc2)nc(C(=O)O)c1Cl [Compound 90]	20	65	0	25	0	30	0	15	0	20	10	50	0	10	0	35	65	85	10	45	Plant response rating, Pigweed [6, 7]: 35; Plant response rating, Pigweed [6, 8]: 90; Plant response rating, Pigweed [6, 9]: 70; Plant response rating, Pigweed [6, 10]: 80
CCOC(=O)c1nc(-c2ccc(OC(F)(F)F)cc2)nc(N)c1Cl [Compound 103]	0	0	0	0	0	0	0	0	0	0	0	0	0	0	0	0	45	70	0	10	Plant response rating, Pigweed [6, 7]: 0; Plant response rating, Pigweed [6, 8]: 20; Plant response rating, Pigweed [6, 9]: 0; Plant response rating, Pigweed [6, 10]: 10

Source: patent publication US8802597B2, “Herbicidal pyrimidines” (E I du Pont de Nemours and Company, priority 2003, dated 2014)
